{
  "source": "the supplement of paper PMC10307832",
  "assay_in_all_cases": "relative viability (nuclei count vs DMSO), 5 days (fraction); higher = more cells survive",
  "key": {"ChaGo-K-1": {"system": "ChaGo-K-1", "in_short": "(§1)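 Medians of duplicate plates are given as relative viability. That measure is the nuclei count in treated wells divided by the count in vehicle wells. Counts were taken on 4× images of lung cancer cell lines in 1536-well plates, 5 days after pin-tool dosing the day after seeding with one drug alone or a fixed anchor-drug dose plus five library-drug doses (not always all listed) in √10 steps.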"}, "EKVX": {"system": "EKVX", "in_short": "as §1"}, "EMC-BAC-2": {"system": "EMC-BAC-2", "in_short": "as §1"}, "EPLC-272H": {"system": "EPLC-272H", "in_short": "as §1"}, "H3255": {"system": "H3255", "in_short": "as §1"}, "HARA": {"system": "HARA", "in_short": "as §1"}, "HCC-15": {"system": "HCC-15", "in_short": "as §1"}, "HCC-827": {"system": "HCC-827", "in_short": "as §1"}, "LC-2-ad": {"system": "LC-2-ad", "in_short": "as §1"}, "LCLC-103H": {"system": "LCLC-103H", "in_short": "as §1"}, "LK-2": {"system": "LK-2", "in_short": "as §1"}, "NCI-H1648": {"system": "NCI-H1648", "in_short": "as §1"}, "NCI-H1793": {"system": "NCI-H1793", "in_short": "as §1"}, "NCI-H1944": {"system": "NCI-H1944", "in_short": "as §1"}, "NCI-H2170": {"system": "NCI-H2170", "in_short": "as §1"}, "NCI-H23": {"system": "NCI-H23", "in_short": "as §1"}, "NCI-H2405": {"system": "NCI-H2405", "in_short": "as §1"}, "NCI-H3122": {"system": "NCI-H3122", "in_short": "as §1"}, "NCI-H596": {"system": "NCI-H596", "in_short": "as §1"}, "RERF-LC-KJ": {"system": "RERF-LC-KJ", "in_short": "as §1"}, "SW 1573": {"system": "SW 1573", "in_short": "as §1"}, "SW 900": {"system": "SW 900", "in_short": "as §1"}},
  "data": [
    {"smiles": "Oc1nc(-c2ccc(C(F)(F)F)cc2)nc2c1CSCC2", "note": "[XAV939] + O=C(CCCCCCC(=O)Nc1ccccc1)NO [Vorinostat] (partner 1 µM)", "values": [
      {"measurement": "relative viability", "setting": "ChaGo-K-1; first compound 0.08 µM", "result": 0.751},
      {"measurement": "relative viability", "setting": "ChaGo-K-1; first compound 0.253 µM", "result": 0.707},
      {"measurement": "relative viability", "setting": "ChaGo-K-1; first compound 0.8 µM", "result": 0.747},
      {"measurement": "relative viability", "setting": "ChaGo-K-1; first compound 2.53 µM", "result": 0.643},
      {"measurement": "relative viability", "setting": "EKVX; first compound 0.08 µM", "result": 0.816},
      {"measurement": "relative viability", "setting": "EKVX; first compound 0.8 µM", "result": 0.678},
      {"measurement": "relative viability", "setting": "EKVX; first compound 2.53 µM", "result": 0.423},
      {"measurement": "relative viability", "setting": "EMC-BAC-2; first compound 0.08 µM", "result": 0.175},
      {"measurement": "relative viability", "setting": "EMC-BAC-2; first compound 0.253 µM", "result": 0.447},
      {"measurement": "relative viability", "setting": "EMC-BAC-2; first compound 0.8 µM", "result": 0.379},
      {"measurement": "relative viability", "setting": "EMC-BAC-2; first compound 2.53 µM", "result": 0.289},
      {"measurement": "relative viability", "setting": "EPLC-272H; first compound 0.08 µM", "result": 0.369},
      {"measurement": "relative viability", "setting": "EPLC-272H; first compound 0.253 µM", "result": 0.339},
      {"measurement": "relative viability", "setting": "EPLC-272H; first compound 0.8 µM", "result": 0.746},
      {"measurement": "relative viability", "setting": "EPLC-272H; first compound 2.53 µM", "result": 0.324},
      {"measurement": "relative viability", "setting": "H3255; first compound 0.08 µM", "result": 0.809},
      {"measurement": "relative viability", "setting": "H3255; first compound 0.253 µM", "result": 0.692},
      {"measurement": "relative viability", "setting": "H3255; first compound 0.8 µM", "result": 0.648},
      {"measurement": "relative viability", "setting": "H3255; first compound 2.53 µM", "result": 0.712},
      {"measurement": "relative viability", "setting": "HARA; first compound 0.08 µM", "result": 0.529},
      {"measurement": "relative viability", "setting": "HARA; first compound 0.253 µM", "result": 0.511},
      {"measurement": "relative viability", "setting": "HARA; first compound 0.8 µM", "result": 0.648},
      {"measurement": "relative viability", "setting": "HARA; first compound 2.53 µM", "result": 0.535},
      {"measurement": "relative viability", "setting": "HCC-15; first compound 0.08 µM", "result": 0.824},
      {"measurement": "relative viability", "setting": "HCC-15; first compound 0.253 µM", "result": 0.742},
      {"measurement": "relative viability", "setting": "HCC-15; first compound 0.8 µM", "result": 0.837},
      {"measurement": "relative viability", "setting": "HCC-15; first compound 2.53 µM", "result": 0.692},
      {"measurement": "relative viability", "setting": "HCC-827; first compound 0.08 µM", "result": 0.872},
      {"measurement": "relative viability", "setting": "HCC-827; first compound 0.253 µM", "result": 0.867},
      {"measurement": "relative viability", "setting": "HCC-827; first compound 0.8 µM", "result": 0.803},
      {"measurement": "relative viability", "setting": "HCC-827; first compound 2.53 µM", "result": 0.686},
      {"measurement": "relative viability", "setting": "LC-2-ad; first compound 0.08 µM", "result": 0.735},
      {"measurement": "relative viability", "setting": "LC-2-ad; first compound 0.253 µM", "result": 0.689},
      {"measurement": "relative viability", "setting": "LC-2-ad; first compound 0.8 µM", "result": 0.705},
      {"measurement": "relative viability", "setting": "LC-2-ad; first compound 2.53 µM", "result": 0.567},
      {"measurement": "relative viability", "setting": "LCLC-103H; first compound 0.08 µM", "result": 0.874},
      {"measurement": "relative viability", "setting": "LCLC-103H; first compound 0.253 µM", "result": 0.698},
      {"measurement": "relative viability", "setting": "LCLC-103H; first compound 0.8 µM", "result": 0.805},
      {"measurement": "relative viability", "setting": "LCLC-103H; first compound 2.53 µM", "result": 0.618},
      {"measurement": "relative viability", "setting": "LK-2; first compound 0.08 µM", "result": 0.371},
      {"measurement": "relative viability", "setting": "LK-2; first compound 0.253 µM", "result": 0.325},
      {"measurement": "relative viability", "setting": "LK-2; first compound 0.8 µM", "result": 0.251},
      {"measurement": "relative viability", "setting": "LK-2; first compound 2.53 µM", "result": 0.24},
      {"measurement": "relative viability", "setting": "NCI-H1648; first compound 0.253 µM", "result": 0.522},
      {"measurement": "relative viability", "setting": "NCI-H1648; first compound 0.8 µM", "result": 0.315},
      {"measurement": "relative viability", "setting": "NCI-H1648; first compound 2.53 µM", "result": 0.285},
      {"measurement": "relative viability", "setting": "NCI-H1793; first compound 0.08 µM", "result": 0.952},
      {"measurement": "relative viability", "setting": "NCI-H1793; first compound 0.253 µM", "result": 0.573},
      {"measurement": "relative viability", "setting": "NCI-H1793; first compound 0.8 µM", "result": 0.937},
      {"measurement": "relative viability", "setting": "NCI-H1793; first compound 2.53 µM", "result": 0.733},
      {"measurement": "relative viability", "setting": "NCI-H1944; first compound 0.08 µM", "result": 0.55},
      {"measurement": "relative viability", "setting": "NCI-H1944; first compound 0.253 µM", "result": 0.625},
      {"measurement": "relative viability", "setting": "NCI-H1944; first compound 0.8 µM", "result": 0.508},
      {"measurement": "relative viability", "setting": "NCI-H1944; first compound 2.53 µM", "result": 0.354},
      {"measurement": "relative viability", "setting": "NCI-H2170; first compound 0.08 µM", "result": 0.86},
      {"measurement": "relative viability", "setting": "NCI-H2170; first compound 0.253 µM", "result": 0.614},
      {"measurement": "relative viability", "setting": "NCI-H2170; first compound 0.8 µM", "result": 0.739},
      {"measurement": "relative viability", "setting": "NCI-H2170; first compound 2.53 µM", "result": 0.543},
      {"measurement": "relative viability", "setting": "NCI-H23; first compound 0.08 µM", "result": 0.684},
      {"measurement": "relative viability", "setting": "NCI-H23; first compound 0.8 µM", "result": 0.66},
      {"measurement": "relative viability", "setting": "NCI-H23; first compound 2.53 µM", "result": 0.415},
      {"measurement": "relative viability", "setting": "NCI-H2405; first compound 0.08 µM", "result": 0.639},
      {"measurement": "relative viability", "setting": "NCI-H2405; first compound 0.253 µM", "result": 0.922},
      {"measurement": "relative viability", "setting": "NCI-H2405; first compound 0.8 µM", "result": 0.913},
      {"measurement": "relative viability", "setting": "NCI-H2405; first compound 2.53 µM", "result": 0.925},
      {"measurement": "relative viability", "setting": "NCI-H3122; first compound 0.08 µM", "result": 1.03},
      {"measurement": "relative viability", "setting": "NCI-H3122; first compound 0.253 µM", "result": 0.401},
      {"measurement": "relative viability", "setting": "NCI-H3122; first compound 0.8 µM", "result": 0.904},
      {"measurement": "relative viability", "setting": "NCI-H3122; first compound 2.53 µM", "result": 0.997},
      {"measurement": "relative viability", "setting": "NCI-H596; first compound 0.08 µM", "result": 0.642},
      {"measurement": "relative viability", "setting": "NCI-H596; first compound 0.253 µM", "result": 0.623},
      {"measurement": "relative viability", "setting": "NCI-H596; first compound 0.8 µM", "result": 0.587},
      {"measurement": "relative viability", "setting": "NCI-H596; first compound 2.53 µM", "result": 0.543},
      {"measurement": "relative viability", "setting": "RERF-LC-KJ; first compound 0.08 µM", "result": 0.707},
      {"measurement": "relative viability", "setting": "RERF-LC-KJ; first compound 0.253 µM", "result": 0.609},
      {"measurement": "relative viability", "setting": "RERF-LC-KJ; first compound 0.8 µM", "result": 0.643},
      {"measurement": "relative viability", "setting": "RERF-LC-KJ; first compound 2.53 µM", "result": 0.368},
      {"measurement": "relative viability", "setting": "SW 1573; first compound 0.08 µM", "result": 0.922},
      {"measurement": "relative viability", "setting": "SW 1573; first compound 0.253 µM", "result": 0.8},
      {"measurement": "relative viability", "setting": "SW 1573; first compound 0.8 µM", "result": 0.542},
      {"measurement": "relative viability", "setting": "SW 1573; first compound 2.53 µM", "result": 0.373},
      {"measurement": "relative viability", "setting": "SW 900; first compound 0.253 µM", "result": 0.528},
      {"measurement": "relative viability", "setting": "SW 900; first compound 0.8 µM", "result": 0.494},
      {"measurement": "relative viability", "setting": "SW 900; first compound 2.53 µM", "result": 0.373}
    ]}
  ]
}
